Data: patent US20240148821A1, “PHARMACEUTICAL USE OF CYCLIC PEPTIDE COMPOUND” (CHUGAI SEIYAKU KABUSHIKI KAISHA, priority 2021, published 2024)
Numbered stars: 1 amine (or outer) side, 2 acyl side, 3 side chain; on linkers, the order of the positions; unused ones are H or OH. Bridge positions count the residues as written; N and C are the ends. Square brackets hold non-standard residues; d marks the D form. Peptide text beside a SMILES is read from it. * marks the point of attachment. hPhe(3-Cl-4-CF3) = N[C@@H](CCc1ccc(C(F)(F)F)c(Cl)c1)C(=O)O; hPhe(3-F,4-CF3) = N[C@@H](CCc1ccc(C(F)(F)F)c(F)c1)C(=O)O; X15 = O=C([C@H](CCc1cc(Cl)c(Cl)c(Cl)c1)N[*:1])[*:2]; X16 = CS(=O)(=O)c1ccc(CC[C@H](N[*:1])C(=O)[*:2])cc1; X18 = O=C([C@H](CCc1ccc(C(F)(F)F)cn1)N[*:1])[*:2]; X22 = O=C([C@H](CCc1ccc(C(F)F)nc1)N[*:1])[*:2]; 3Oxa8azabicyclo(3.2.1)octane = C1CC2COCC1N2*; NMePhe(4-Cl) = CN[C@@H](Cc1ccc(Cl)cc1)C(=O)O; X10 = C#Cc1cccc(C[C@H](N[*:1])C(=O)[*:2])c1; X3 = O=C(CN(C1CC2(C1)CC(F)(F)C2)[*:1])[*:2]; NMedβ3hAla = C[C@H](CC(=O)[*:2])N(C)[*:1]; NMeAla(cPent) = CN[C@@H](CC1CCCC1)C(=O)O; NMeGly(cPent) = CN[C@H](C(=O)O)C1CCCC1; X28 = O=C(CN(C1CC2(COC2)C1)[*:1])[*:2]; NMe3Pal = CN[C@@H](Cc1cccnc1)C(=O)O; NMeCha = CN[C@@H](CC1CCCCC1)C(=O)O; Hyp = O=C(O)[C@@H]1C[C@@H](O)CN1; NMeChg = CN[C@H](C(=O)O)C1CCCCC1; NMeD = CN[C@@H](CC(=O)O)C(=O)O; NMeL = CN[C@@H](CC(C)C)C(=O)O; NMeNva = CCC[C@H](NC)C(=O)O; NMeV = CN[C@H](C(=O)O)C(C)C; d(β3hA) = C[C@@H](N)CC(=O)O; Morpholide = C1CN(*)CCO1; NMeA = CN[C@@H](C)C(=O)O; NMeAib = CNC(C)(C)C(=O)O; Nle = CCCC[C@H](N)C(=O)O; Piperidide = C1CCN(*)CC1; Pyrrolidide = C1CCN(*)C1; Ac5c = NC1(C(=O)O)CCCC1; Aze = O=C(O)[C@@H]1CCN1; Bn = c1ccc(C*)cc1; Sar = CNCC(=O)O

Tests used:
[1] = test system: Human pancreatic cancer cell line AsPC-1 (G12D mutation Kras); test: AsPC-1 cell growth inhibition (AsPC-1 CGI); format: cell-based; conditions: read-out: AsPC-1 cell growth inhibition, 50% growth inhibitory concentration (IC50 value); 96 hours, CellTiter-Glo, values classified in ranges
Description: Test compounds were serially dilated with dimethyl sulfoxide, and 200 nL was then dispensed to a U-bottom 96-well plate using Labcyte Echo. […] The cell suspension was dispensed to a. plate containing a test compound at 100 μL per well and incubated at 37° C. in a 5% carbon dioxide gas incubator. 96 hours later, 80 μL of CellTiter-Glo (Promega) was added to each well and fluorescence was measured.

[2] = target: protein-protein interaction between Kras and SOS1 (biotin-tagged human Kras loaded with GDP, His-tagged human SOS1) (Homo sapiens (Human), UniProt P01116, G12D); test: Protein-protein interaction inhibition between Kras and SOS1 (KrasG12D-SOS PPI) using AlphaScreen; format: biochemical; conditions: AlphaScreen; biotin-tagged human Kras loaded with GDP, His-tagged human SOS1; read-out: KRAS G12D-SOS PPI IC50;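 note: kras produced in E. coli, Ni-coupled donor beads and streptavidin acceptor beads, excitation 680 nm with emission detected at 520–620 nm via singlet oxygen transfer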

Row | SMILES | IC50 [1] | IC50 [2]
1 | CC[C@H](C)[C@@H]1NC(=O)[C@H](CC(C)C)N(C)C(=O)C[C@@H](C)N(C)C(=O)[C@H](C2CCCCC2)N(C)C(=O)C2(CCCC2)NC(=O)[C@H](Cc2cccnc2)N(C)C(=O)[C@H](CCc2ccc(C(F)(F)F)c(Cl)c2)NC(=O)CN(C)C(=O)[C@H](CC2CCCCC2)N(C)C(=O)CN(C)C(=O)CN(C)C1=O [Compound 1849] (cyclo([Ac5c][NMeChg][NMedβ3hAla][NMeL]I[Sar][Sar][NMeCha][Sar][hPhe(3-Cl-4-CF3)][NMe3Pal])) | > 500 nM | 230 nM
2 | CCC[C@H]1C(=O)N[C@@H]([C@@H](C)CC)C(=O)N(C)CC(=O)N(C)CC(=O)N(C)[C@@H](CC2CCCC2)C(=O)N(C)CC(=O)N[C@@H](CCc2ccc(C(F)(F)F)c(Cl)c2)C(=O)N(C)[C@@H](Cc2cccnc2)C(=O)NC2(CCCC2)C(=O)N(C)[C@@H](C2CCCCC2)C(=O)N(C)[C@H](C(=O)N2CCOCC2)CC(=O)N1C [Compound 1937] ([NMeNva]I[Sar][Sar][NMeAla(cPent)][Sar][hPhe(3-Cl-4-CF3)][NMe3Pal][Ac5c][NMeChg][NMeD]-Morpholide; lactam N-11) | > 500 nM | 3.1 nM
3 | CCC[C@H]1C(=O)N[C@@H]([C@@H](C)CC)C(=O)N(C)CC(=O)N(C)CC(=O)N(C)[C@@H](CC2CCCC2)C(=O)N(C)CC(=O)N[C@@H](CCc2ccc(C(F)(F)F)c(Cl)c2)C(=O)N(C)[C@@H](Cc2cccnc2)C(=O)NC2(CCCC2)C(=O)N(C)[C@@H](C2CCCCC2)C(=O)N(C)[C@H](C(=O)N2CCCC2)CC(=O)N1C [Compound 1946] ([NMeNva]I[Sar][Sar][NMeAla(cPent)][Sar][hPhe(3-Cl-4-CF3)][NMe3Pal][Ac5c][NMeChg][NMeD]-Pyrrolidide; lactam N-11) | > 500 nM | 1.5 nM
4 | CCO[C@@H]1C[C@H]2C(=O)NC3(CCCC3)C(=O)N(C)[C@@H](C3CCCCC3)C(=O)N(C)[C@H](C(=O)N3C4CCC3COC4)CC(=O)N(C)[C@@H](CC(C)C)C(=O)N[C@@H]([C@@H](C)CC)C(=O)N(C)CC(=O)N(C)CC(=O)N(C)[C@@H](CC3CCCCC3)C(=O)N(C)CC(=O)N[C@@H](CCc3ccc(C(F)(F)F)c(Cl)c3)C(=O)N2C1 [Compound 1977] ([NMeL]I[Sar][Sar][NMeCha][Sar][hPhe(3-Cl-4-CF3)][Hyp](Et)[Ac5c][NMeChg][NMeD]-{3Oxa8azabicyclo(3.2.1)octane}; lactam N-11) | ≤ 20 nM | 0.47 nM
5 | CCO[C@@H]1C[C@H]2C(=O)NC3(CCCC3)C(=O)N(C)[C@@H](C3CCCCC3)C(=O)N(C)[C@H](C(=O)N3CCOCC3)CC(=O)N(C)[C@@H](CC(C)C)C(=O)N[C@@H]([C@@H](C)CC)C(=O)N(C)CC(=O)N(C)CC(=O)N(C)[C@@H](CC3CCCCC3)C(=O)N(C)CC(=O)N[C@@H](CCc3ccc(C(F)(F)F)c(Cl)c3)C(=O)N2C1 [Compound 1990] ([NMeL]I[Sar][Sar][NMeCha][Sar][hPhe(3-Cl-4-CF3)][Hyp](Et)[Ac5c][NMeChg][NMeD]-Morpholide; lactam N-11) | ≤ 20 nM | 0.43 nM
6 | CC[C@H](C)[C@@H]1NC(=O)[C@H](CC(C)C)N(C)C(=O)C[C@@H](C(=O)N2CCCCC2)N(C)C(=O)[C@H](C2CCCCC2)N(C)C(=O)C2(CCCC2)NC(=O)CN(C2CC3(COC3)C2)C(=O)[C@H](CCc2ccc(C(F)(F)F)c(Cl)c2)NC(=O)CN(C)C(=O)[C@H](CC2CCCCC2)N(C)C(=O)CN(C)C(=O)CN(C)C1=O [Compound 2030] ([NMeL]I[Sar][Sar][NMeCha][Sar][hPhe(3-Cl-4-CF3)][X28][Ac5c][NMeChg][NMeD]-Piperidide; lactam N-11) | > 500 nM | 2.3 nM
7 | CC[C@H](C)[C@@H]1NC(=O)[C@H](CC(C)C)N(C)C(=O)C[C@@H](C(=O)N2CCCCC2)N(C)C(=O)[C@H](C2CCCCC2)N(C)C(=O)C2(CCCC2)NC(=O)CN(C2CC3(C2)CC(F)(F)C3)C(=O)[C@H](CCc2ccc(C(F)(F)F)c(Cl)c2)NC(=O)CN(C)C(=O)[C@H](CC2CCCCC2)N(C)C(=O)CN(C)C(=O)CN(C)C1=O [Compound 2035, (11S,17S,26S,29S,33S,36S)-11-[2-[3-chloro-4-(trifluoromethyl)phenyl]ethyl]-36-cyclohexyl-17-(cyclohexylmethyl)-9-(2,2-difluorospiro[3.3]heptan-6-yl)-29-isobutyl-15,18,21,24,30,34,37-heptamethyl-26-[(1S)-1-methylpropyl]-33-(piperidine,-1-carbonyl)-6,9,12,15,18,21,24,27,30,34,37-undecazaspiro[4.33]octatriacontane-7,10,13,16,19,22,25,28,31,35,38-undecone] ([NMeL]I[Sar][Sar][NMeCha][Sar][hPhe(3-Cl-4-CF3)][X3][Ac5c][NMeChg][NMeD]-Piperidide; lactam N-11) | > 500 nM | 24 nM
8 | CC[C@H](C)[C@@H]1NC(=O)[C@H](CC(C)C)N(C)C(=O)C[C@@H](C(=O)N2CCCCC2)N(C)C(=O)[C@H](C2CCCCC2)N(C)C(=O)C2(CCCC2)NC(=O)[C@@H]2CCCN2C(=O)[C@H](CCc2ccc(S(C)(=O)=O)cc2)NC(=O)CN(C)C(=O)[C@H](CC2CCCCC2)N(C)C(=O)CN(C)C(=O)CN(C)C1=O [Compound 2058, (3S,9S,18S,21S,25S,28S,34S)-28-cyclohexyl-9-(cyclohexylmethyl)-21-isobutyl-7,10,13,16,22,26,29-heptamethyl-18-[(1S)-1-methylpropyl]-3-[2-(4-methylsulfonylphenyl)ethyl]-25-(piperidine-1-carbonyl)spiro[1,4,7,10,13,16,19,22,26,29,32-undecazabicyclo[32.3.0]heptatriacontane-31,1′-cyclopentane]-2,5,8,11,14,17,20,23,27,30,33-undecone] ([NMeL]I[Sar][Sar][NMeCha][Sar][X16]P[Ac5c][NMeChg][NMeD]-Piperidide; lactam N-11) | > 500 nM | 380 nM
9 | CC[C@H](C)[C@@H]1NC(=O)[C@H](CC(C)C)N(C)C(=O)C[C@@H](C(=O)N2CCCCC2)N(C)C(=O)[C@H](C2CCCC2)N(C)C(=O)C2(CCCC2)NC(=O)[C@@H]2CCCN2C(=O)[C@H](CCc2ccc(C(F)F)nc2)NC(=O)CN(C)C(=O)[C@H](CC2CCCCC2)N(C)C(=O)[C@@H]2CCN2C(=O)[C@H](C)N(C)C1=O [Compound 2060] ([NMeL]I[NMeA][Aze][NMeCha][Sar][X22]P[Ac5c][NMeGly(cPent)][NMeD]-Piperidide; lactam N-11 (inferred); C-terminus assumed) | > 500 nM | 110 nM
10 | CC[C@H](C)[C@@H]1NC(=O)[C@H](C)N(C)C(=O)C[C@@H](C(=O)N2CCCCC2)N(C)C(=O)[C@H](C(C)C)N(C)C(=O)C2(CCCC2)NC(=O)[C@@H]2CCCN2C(=O)[C@H](CCc2cc(Cl)c(Cl)c(Cl)c2)NC(=O)CN(C)C(=O)[C@H](CC2CCCCC2)N(C)C(=O)CN(C)C(=O)CN(C)C1=O [Compound 2068, (3S,9S,18S,21S,25S,28S,34S)-9-(cyclohexylmethyl)-28-isopropyl-7,10,13,16,21,22,26,29-octamethyl-18-[(1S)-1-methylpropyl]-25-(piperidine-1-carbonyl)-3-[2-(3,4,5-trichlorophenyl)ethyl]spiro[1,4,7,10,13,16,19,22,26,29,32-undecazabicyclo[32.3.0]heptatriacontane-31,1′-cylopentane]-2,5,8,11,14,17,20,23,27,30,33-undecone] ([NMeA]I[Sar][Sar][NMeCha][Sar][X15]P[Ac5c][NMeV][NMeD]-Piperidide; lactam N-11) | > 500 nM | 1.7 nM
11 | CC[C@H](C)[C@@H]1NC(=O)[C@H](CC(C)C)N(C)C(=O)C[C@@H](C(=O)N2CCCCC2)N(C)C(=O)[C@H](C2CCCC2)N(C)C(=O)C2(CCCC2)NC(=O)[C@@H]2CCCN2C(=O)[C@H](CCc2ccc(C(F)(F)F)cn2)NC(=O)CN(C)C(=O)[C@H](CC2CCCCC2)N(C)C(=O)[C@@H]2CCN2C(=O)[C@H](C)N(C)C1=O [Compound 2069] ([NMeL]I[NMeA][Aze][NMeCha][Sar][X18]P[Ac5c][NMeGly(cPent)][NMeD]-Piperidide; lactam N-11 (inferred); C-terminus assumed) | > 500 nM | 78 nM
12 | CC[C@H](C)[C@@H]1NC(=O)[C@H](CC(C)C)N(C)C(=O)C[C@@H](C)NC(=O)[C@H](CC(C)C)N(C)C(=O)C2(CCCC2)NC(=O)[C@@H]2C[C@@H](OCc3ccccc3)CN2C(=O)[C@H](CCc2ccc(C(F)(F)F)c(F)c2)NC(=O)CN(C)C(=O)[C@H](CC2CCCCC2)N(C)C(=O)CN(C)C(=O)CN(C)C1=O [Compound 2116, (3S,9S,18S,21S,25R,28S,34S,36R)-36-benzyloxy-9-(cylohexylmethyl)-3-[2-[3-fluoro-4-(trifluoromethyl)phenyl]ethyl]-21,28-diisobutyl-7,10,13,16,22,25,29-heptamethyl-18-[(1S)-1-methylpropyl]spiro[1,4,7,10,13,16,19,22,26,29,32-undecazabicyclo[32.3.0]heptatriacontane-31,1′-cyclopentane]-2,5,8,11,14,17,20,23,27,30,33-undecone] (cyclo([Ac5c][NMeL][d(β3hA)][NMeL]I[Sar][Sar][NMeCha][Sar][hPhe(3-F,4-CF3)][Hyp](Bn))) | > 500 nM | 110 nM
13 | C#Cc1cccc(C[C@@H]2NC(=O)CN(C)C(=O)[C@H](Cc3ccc(Cl)cc3)N(C)C(=O)CN(C)C(=O)CN(C)C(=O)[C@H]([C@@H](C)CC)NC(=O)[C@H](CC(C)C)N(C)C(=O)C[C@@H](C(=O)N3CCCCC3)N(C)C(=O)[C@H](CC(C)C)NC(=O)C(C)(C)N(C)C(=O)[C@H](CCCC)NC2=O)c1 [Compound 2142, (3S,9S,12S,18S,27S,30S,34S)-9-butyl-18-[(4-chlorophenyl)methyl]-12-[(3-ethynylphenyl)methyl]-3,30-diisobutyl-1,6,6,7,16,19,22,25,31-nonamethyl-27-[(1S)-1-methylpropyl]-34-(piperidine-1-carbonyl)-1,4,7,10,13,16,19,22,25,28,31-undecazacyclotetratriacontane-2,5,8,11,14,17,20,23,26,29,32-undecone] ([NMeL]I[Sar][Sar][NMePhe(4-Cl)][Sar][X10][Nle][NMeAib]L[NMeD]-Piperidide; lactam N-11) | > 500 nM | 44 nM
